Measured values: PubChem BioAssay AID2060897 (Molecular Pharmacology Branch, DTP, NCI, 2025)

Test system: 966289-007-R4-J1-PDC complex spheroid viability
Assay: Anticancer human tumor 966289-007-R4-J1-PDC patient-derived pancreatic adenocarcinoma cell line growth inhibition [RAS]
Details: for IC50: curve of first compound; for viability, T/C: stronger effect = lower value
Procedure, shortened: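 Tumour cells grown as complex spheroids with HUVEC endothelial cells and mesenchymal stem cells, treated with RAS pathway inhibitor combinations. Each agent spans half-log steps from near clinical Cmax, or 10 microM where Cmax is unknown.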
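Note: spheroids exposed to agents for one week before readout.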
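Throughout, for viability, T/C: percent viability relative to DMSO vehicle control wells as 100%.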

**Q.** What does the source list for `CCN1CCN(Cc2ccc(Nc3ncc(F)c(-c4cc(F)c5nc(C)n(C(C)C)c5c4)n3)nc2)CC1` + CCn1c(-c2cc(N3CCN(C)CC3)cnc2C(C)OC)c2c3cc(ccc31)-c1csc(n1)CC(NC(=O)C1CC1C)C(=O)N1CCCC(N1)C(=O)OCC(C)(C)C2?
**A.** IC50 (second compound 0.000949 µM): > 1000 nM; IC50 (second compound 0.003 µM): > 1000 nM; IC50 (second compound 0.00949 µM): > 1000 nM; IC50 (second compound 0.03 µM): > 1000 nM; IC50 (second compound 0.0949 µM): > 1000 nM; IC50 (second compound 0.3 µM): > 1000 nM; viability, T/C (second compound 0.000949 µM, first compound 0.00316 µM): 122%; viability, T/C (second compound 0.000949 µM, first compound 0.01 µM): 116%; viability, T/C (second compound 0.000949 µM, first compound 0.0316 µM): 130%; viability, T/C (second compound 0.000949 µM, first compound 0.1 µM): 86.2%; viability, T/C (second compound 0.000949 µM, first compound 0.316 µM): 92.2%; viability, T/C (second compound 0.000949 µM, first compound 1 µM): 89.8%; viability, T/C (second compound 0.003 µM, first compound 0.00316 µM): 109%; viability, T/C (second compound 0.003 µM, first compound 0.01 µM): 121%; viability, T/C (second compound 0.003 µM, first compound 0.0316 µM): 112%; viability, T/C (second compound 0.003 µM, first compound 0.1 µM): 95.7%; viability, T/C (second compound 0.003 µM, first compound 0.316 µM): 114%; viability, T/C (second compound 0.003 µM, first compound 1 µM): 85%; viability, T/C (second compound 0.00949 µM, first compound 0.00316 µM): 93.9%; viability, T/C (second compound 0.00949 µM, first compound 0.01 µM): 116%; viability, T/C (second compound 0.00949 µM, first compound 0.0316 µM): 120%; viability, T/C (second compound 0.00949 µM, first compound 0.1 µM): 97.7%; viability, T/C (second compound 0.00949 µM, first compound 0.316 µM): 98.7%; viability, T/C (second compound 0.00949 µM, first compound 1 µM): 96.7%; viability, T/C (second compound 0.03 µM, first compound 0.00316 µM): 85.3%; viability, T/C (second compound 0.03 µM, first compound 0.01 µM): 105%; viability, T/C (second compound 0.03 µM, first compound 0.0316 µM): 129%; viability, T/C (second compound 0.03 µM, first compound 0.1 µM): 95%; viability, T/C (second compound 0.03 µM, first compound 0.316 µM): 97.8%; viability, T/C (second compound 0.03 µM, first compound 1 µM): 85.1%; viability, T/C (second compound 0.0949 µM, first compound 0.00316 µM): 129%; viability, T/C (second compound 0.0949 µM, first compound 0.01 µM): 100%; viability, T/C (second compound 0.0949 µM, first compound 0.0316 µM): 115%; viability, T/C (second compound 0.0949 µM, first compound 0.1 µM): 95.9%; viability, T/C (second compound 0.0949 µM, first compound 0.316 µM): 86.9%; viability, T/C (second compound 0.0949 µM, first compound 1 µM): 88.6%; viability, T/C (second compound 0.3 µM, first compound 0.00316 µM): 101%; viability, T/C (second compound 0.3 µM, first compound 0.01 µM): 89.8%; viability, T/C (second compound 0.3 µM, first compound 0.0316 µM): 114%; viability, T/C (second compound 0.3 µM, first compound 0.1 µM): 111%; viability, T/C (second compound 0.3 µM, first compound 0.316 µM): 97.9%; viability, T/C (second compound 0.3 µM, first compound 1 µM): 79%

**Q.** With `C=CC(=O)Nc1cc(Nc2nccc(-c3cn(C)c4ccccc34)n2)c(OC)cc1N(C)CCN(C)C` + C#Cc1c(F)ccc2cc(O)cc(-c3ncc4c(N5CC6CCC(C5)N6)nc(OCC56CCCN5CC(F)C6)nc4c3F)c12 as the compound, how does the IC50 (second compound 0.0316 µM) read?
**A.** > 1000 nM

**Q.** And the IC50 (second compound 0.1 µM)?
**A.** > 1000 nM

**Q.** And the IC50 (second compound 0.316 µM)?
**A.** > 1000 nM

**Q.** What about the IC50 (second compound 1 µM) of the same compound?
**A.** > 1000 nM

**Q.** And the IC50 (second compound 3.16 µM)?
**A.** > 1000 nM

**Q.** And the IC50 (second compound 10 µM)?
**A.** > 1000 nM

**Q.** And the viability, T/C (second compound 0.0316 µM, first compound 0.00316 µM)?
**A.** 107%

**Q.** What about the viability, T/C (second compound 0.0316 µM, first compound 0.01 µM) of the same compound?
**A.** 96%

**Q.** What about the viability, T/C (second compound 0.0316 µM, first compound 0.0316 µM) of the same compound?
**A.** 101%

**Q.** And the viability, T/C (second compound 0.0316 µM, first compound 0.1 µM)?
**A.** 96.3%

**Q.** And the viability, T/C (second compound 0.0316 µM, first compound 0.316 µM)?
**A.** 94.2%

**Q.** And the viability, T/C (second compound 0.0316 µM, first compound 1 µM)?
**A.** 94%

**Q.** And the viability, T/C (second compound 0.1 µM, first compound 0.00316 µM)?
**A.** 94.8%

**Q.** What about the viability, T/C (second compound 0.1 µM, first compound 0.01 µM) of the same compound?
**A.** 103%

**Q.** What about the viability, T/C (second compound 0.1 µM, first compound 0.0316 µM) of the same compound?
**A.** 99.8%

**Q.** And the viability, T/C (second compound 0.1 µM, first compound 0.1 µM)?
**A.** 110%

**Q.** And the viability, T/C (second compound 0.1 µM, first compound 0.316 µM)?
**A.** 90.4%

**Q.** And the viability, T/C (second compound 0.1 µM, first compound 1 µM)?
**A.** 88.8%

**Q.** And the viability, T/C (second compound 0.316 µM, first compound 0.00316 µM)?
**A.** 108%

**Q.** And the viability, T/C (second compound 0.316 µM, first compound 0.01 µM)?
**A.** 92.6%

**Q.** What about the viability, T/C (second compound 0.316 µM, first compound 0.0316 µM) of the same compound?
**A.** 114%

**Q.** What about the viability, T/C (second compound 0.316 µM, first compound 0.1 µM) of the same compound?
**A.** 105%

**Q.** What about the viability, T/C (second compound 0.316 µM, first compound 0.316 µM) of the same compound?
**A.** 105%

**Q.** What about the viability, T/C (second compound 0.316 µM, first compound 1 µM) of the same compound?
**A.** 87.2%

**Q.** What about the viability, T/C (second compound 1 µM, first compound 0.00316 µM) of the same compound?
**A.** 102%

**Q.** What about the viability, T/C (second compound 1 µM, first compound 0.01 µM) of the same compound?
**A.** 93.1%

**Q.** And the viability, T/C (second compound 1 µM, first compound 0.0316 µM)?
**A.** 97%

**Q.** And the viability, T/C (second compound 1 µM, first compound 0.1 µM)?
**A.** 106%

**Q.** And the viability, T/C (second compound 1 µM, first compound 0.316 µM)?
**A.** 97.9%

**Q.** What about the viability, T/C (second compound 1 µM, first compound 1 µM) of the same compound?
**A.** 82.8%

**Q.** What about the viability, T/C (second compound 3.16 µM, first compound 0.00316 µM) of the same compound?
**A.** 108%

**Q.** And the viability, T/C (second compound 3.16 µM, first compound 0.01 µM)?
**A.** 107%

**Q.** And the viability, T/C (second compound 3.16 µM, first compound 0.0316 µM)?
**A.** 129%

**Q.** And the viability, T/C (second compound 3.16 µM, first compound 0.1 µM)?
**A.** 101%

**Q.** And the viability, T/C (second compound 3.16 µM, first compound 0.316 µM)?
**A.** 114%

**Q.** What about the viability, T/C (second compound 3.16 µM, first compound 1 µM) of the same compound?
**A.** 106%

**Q.** What about the viability, T/C (second compound 10 µM, first compound 0.00316 µM) of the same compound?
**A.** 97.5%

**Q.** What about the viability, T/C (second compound 10 µM, first compound 0.01 µM) of the same compound?
**A.** 109%

**Q.** And the viability, T/C (second compound 10 µM, first compound 0.0316 µM)?
**A.** 108%

**Q.** And the viability, T/C (second compound 10 µM, first compound 0.1 µM)?
**A.** 118%

**Q.** What about the viability, T/C (second compound 10 µM, first compound 0.316 µM) of the same compound?
**A.** 91.3%

**Q.** And the viability, T/C (second compound 10 µM, first compound 1 µM)?
**A.** 115%
